Article PMC7586344, “Discovery of Novel pERK1/2- or β-Arrestin-Preferring 5-HT1A Receptor-Biased Agonists: Diversified Therapeutic-like versus Side Effect Profile” (Journal of Medicinal Chemistry, 2020)

Columns and labels:
M4 = target: T1, M4 (Homo sapiens, UniProt P08173); assay: Off-target binding screen; conditions: 1000 nM, read-out: % Inhibition of Control Specific Binding
T1 construct: Eurofins Pharma Discovery Services (contract assay)
T1 sequence (P08173 1-479): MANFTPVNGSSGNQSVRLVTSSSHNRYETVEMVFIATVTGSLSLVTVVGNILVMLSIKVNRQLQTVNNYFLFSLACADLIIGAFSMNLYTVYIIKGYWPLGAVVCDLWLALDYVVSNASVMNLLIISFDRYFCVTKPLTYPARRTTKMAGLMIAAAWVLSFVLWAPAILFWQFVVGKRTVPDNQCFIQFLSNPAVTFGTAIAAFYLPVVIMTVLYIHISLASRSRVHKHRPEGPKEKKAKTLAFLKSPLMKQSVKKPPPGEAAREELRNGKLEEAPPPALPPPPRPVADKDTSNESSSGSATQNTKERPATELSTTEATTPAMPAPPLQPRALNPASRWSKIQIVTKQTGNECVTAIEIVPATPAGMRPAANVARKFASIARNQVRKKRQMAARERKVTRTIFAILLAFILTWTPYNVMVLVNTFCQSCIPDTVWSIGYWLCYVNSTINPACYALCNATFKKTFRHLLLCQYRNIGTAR

σ1 = target: T2, σ1 (Homo sapiens, UniProt Q99720); assay: Off-target binding screen; conditions: read-out: % Inhibition of Control Specific Binding; for inhibition at 0.01 µM: 10 nM; for inhibition at 0.1 µM: 100 nM; for inhibition at 1 µM: 1000 nM
T2 construct: Eurofins Pharma Discovery Services (contract assay)
T2 sequence (Q99720 whole entry): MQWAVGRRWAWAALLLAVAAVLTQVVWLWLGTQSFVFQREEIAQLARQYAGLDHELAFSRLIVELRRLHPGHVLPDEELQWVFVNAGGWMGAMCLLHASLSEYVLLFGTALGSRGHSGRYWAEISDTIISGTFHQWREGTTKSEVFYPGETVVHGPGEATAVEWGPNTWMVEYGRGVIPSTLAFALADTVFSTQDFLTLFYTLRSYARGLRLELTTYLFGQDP

Intrinsic clearance = assay type: in vitro ADME; conditions: rat, rat liver microsomes, pH 7.4
δ (DOR) = target: T3, δ (DOR) (Homo sapiens, UniProt P41143); assay: Off-target binding screen; conditions: 1000 nM, read-out: % Inhibition of Control Specific Binding
T3 construct: Eurofins Pharma Discovery Services (contract assay)
T3 sequence (P41143 whole entry): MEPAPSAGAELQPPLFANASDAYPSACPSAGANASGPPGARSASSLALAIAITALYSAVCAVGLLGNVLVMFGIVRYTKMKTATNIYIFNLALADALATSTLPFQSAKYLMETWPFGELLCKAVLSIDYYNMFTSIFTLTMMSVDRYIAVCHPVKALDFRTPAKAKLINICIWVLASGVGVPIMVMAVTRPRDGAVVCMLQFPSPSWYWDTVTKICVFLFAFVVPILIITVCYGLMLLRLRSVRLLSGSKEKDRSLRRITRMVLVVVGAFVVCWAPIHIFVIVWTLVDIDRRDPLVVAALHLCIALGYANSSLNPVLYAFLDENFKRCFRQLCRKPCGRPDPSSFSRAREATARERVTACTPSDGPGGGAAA

5-HT6 = target: T4, 5-HT6 (Homo sapiens, UniProt P50406); assay: Off-target binding screen; conditions: 1000 nM, read-out: % Inhibition of Control Specific Binding
T4 construct: Eurofins Pharma Discovery Services (contract screen)
T4 sequence (P50406 whole entry, species assumed): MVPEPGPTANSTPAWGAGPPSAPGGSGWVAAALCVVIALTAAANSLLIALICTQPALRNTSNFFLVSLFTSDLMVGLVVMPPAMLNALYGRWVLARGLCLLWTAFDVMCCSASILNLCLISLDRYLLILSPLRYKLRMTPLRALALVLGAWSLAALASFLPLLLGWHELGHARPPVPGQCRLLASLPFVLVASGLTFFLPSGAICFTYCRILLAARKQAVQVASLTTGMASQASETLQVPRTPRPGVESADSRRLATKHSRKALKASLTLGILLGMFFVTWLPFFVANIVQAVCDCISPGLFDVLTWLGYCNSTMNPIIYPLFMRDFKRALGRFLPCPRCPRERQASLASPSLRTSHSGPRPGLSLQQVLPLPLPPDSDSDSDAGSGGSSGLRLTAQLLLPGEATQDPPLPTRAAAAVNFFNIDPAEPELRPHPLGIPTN

DAT = target: T5, DAT (Homo sapiens, UniProt Q01959); assay: Off-target binding screen; conditions: 1000 nM, read-out: % Inhibition of Control Specific Binding
T5 construct: Eurofins Pharma Discovery Services
T5 sequence (Q01959 whole entry, species assumed): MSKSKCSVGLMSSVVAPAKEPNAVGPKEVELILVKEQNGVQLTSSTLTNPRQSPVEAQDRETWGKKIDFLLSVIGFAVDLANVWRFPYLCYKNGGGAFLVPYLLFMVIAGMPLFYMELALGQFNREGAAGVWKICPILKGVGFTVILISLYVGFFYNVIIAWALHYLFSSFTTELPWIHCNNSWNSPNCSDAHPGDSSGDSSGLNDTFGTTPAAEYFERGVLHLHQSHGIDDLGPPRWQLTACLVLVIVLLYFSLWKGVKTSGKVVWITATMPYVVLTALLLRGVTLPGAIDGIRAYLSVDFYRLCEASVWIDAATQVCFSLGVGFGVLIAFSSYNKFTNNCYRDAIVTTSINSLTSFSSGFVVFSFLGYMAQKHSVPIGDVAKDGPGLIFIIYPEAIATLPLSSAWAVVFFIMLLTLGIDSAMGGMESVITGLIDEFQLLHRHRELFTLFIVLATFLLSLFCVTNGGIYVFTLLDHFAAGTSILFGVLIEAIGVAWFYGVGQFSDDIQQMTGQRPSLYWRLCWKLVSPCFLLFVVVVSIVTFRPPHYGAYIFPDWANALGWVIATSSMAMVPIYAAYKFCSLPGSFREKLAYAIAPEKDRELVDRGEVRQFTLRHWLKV

5-HT2B = target: T6, 5-HT2B (Homo sapiens, UniProt P41595); assay: Off-target binding screen; conditions: 1000 nM, read-out: % Inhibition of Control Specific Binding
T6 construct: Eurofins Pharma Discovery Services (contract screen)
T6 sequence (P41595 whole entry, species assumed): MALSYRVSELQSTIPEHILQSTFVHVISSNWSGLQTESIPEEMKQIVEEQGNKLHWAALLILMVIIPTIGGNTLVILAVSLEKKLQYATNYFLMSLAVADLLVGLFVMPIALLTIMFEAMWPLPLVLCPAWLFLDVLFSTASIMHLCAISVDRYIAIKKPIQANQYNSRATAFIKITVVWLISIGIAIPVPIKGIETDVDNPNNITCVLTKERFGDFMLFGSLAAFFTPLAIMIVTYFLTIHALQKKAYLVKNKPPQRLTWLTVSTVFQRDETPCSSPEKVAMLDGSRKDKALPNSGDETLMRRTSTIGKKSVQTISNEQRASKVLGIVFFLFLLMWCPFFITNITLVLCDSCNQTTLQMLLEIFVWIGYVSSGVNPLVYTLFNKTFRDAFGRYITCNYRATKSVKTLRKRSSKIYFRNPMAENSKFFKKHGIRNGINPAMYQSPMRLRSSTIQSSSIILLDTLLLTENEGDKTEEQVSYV

α2A = target: T7, α2A (Homo sapiens, UniProt P08913); assay: Off-target binding screen; conditions: read-out: % Inhibition of Control Specific Binding; for inhibition at 0.01 µM: 10 nM; for inhibition at 0.1 µM: 100 nM; for inhibition at 1 µM: 1000 nM
T7 construct: Eurofins Pharma Discovery Services (contract screen)
T7 sequence (P08913 1-465): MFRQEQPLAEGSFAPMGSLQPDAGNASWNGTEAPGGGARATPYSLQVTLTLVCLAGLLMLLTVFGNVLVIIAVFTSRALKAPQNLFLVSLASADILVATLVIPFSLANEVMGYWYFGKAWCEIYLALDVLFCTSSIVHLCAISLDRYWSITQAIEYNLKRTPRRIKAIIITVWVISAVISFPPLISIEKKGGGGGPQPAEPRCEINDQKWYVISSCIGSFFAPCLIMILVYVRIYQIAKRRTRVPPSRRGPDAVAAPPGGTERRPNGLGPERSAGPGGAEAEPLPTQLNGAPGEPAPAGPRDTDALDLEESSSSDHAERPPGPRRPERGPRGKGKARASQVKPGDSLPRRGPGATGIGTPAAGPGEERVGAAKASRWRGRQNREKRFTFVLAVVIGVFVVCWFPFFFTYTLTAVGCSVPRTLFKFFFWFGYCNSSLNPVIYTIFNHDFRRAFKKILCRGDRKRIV

α1B = target: T8, α1B (Homo sapiens, UniProt P35368); assay: Off-target binding screen; conditions: read-out: % Inhibition of Control Specific Binding; for inhibition at 0.01 µM: 10 nM; for inhibition at 0.1 µM: 100 nM; for inhibition at 1 µM: 1000 nM
T8 construct: Eurofins Pharma Discovery Services (contract screen)
T8 sequence (P35368 1-520): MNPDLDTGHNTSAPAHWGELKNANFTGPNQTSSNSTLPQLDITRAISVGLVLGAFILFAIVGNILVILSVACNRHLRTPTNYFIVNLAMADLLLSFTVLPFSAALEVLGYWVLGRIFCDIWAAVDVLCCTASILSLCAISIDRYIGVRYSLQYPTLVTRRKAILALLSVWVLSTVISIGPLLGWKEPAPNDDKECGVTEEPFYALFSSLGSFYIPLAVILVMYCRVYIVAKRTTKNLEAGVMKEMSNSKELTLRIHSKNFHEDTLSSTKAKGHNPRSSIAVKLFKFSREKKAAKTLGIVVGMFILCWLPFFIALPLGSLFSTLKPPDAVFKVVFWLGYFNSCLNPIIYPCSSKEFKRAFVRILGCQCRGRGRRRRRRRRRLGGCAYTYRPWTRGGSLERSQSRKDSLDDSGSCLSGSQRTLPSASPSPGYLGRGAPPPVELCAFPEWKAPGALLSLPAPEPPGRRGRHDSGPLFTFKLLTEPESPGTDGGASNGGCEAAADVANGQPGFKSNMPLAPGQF

5-HT2A = target: T9, 5-HT2A (Homo sapiens, UniProt P28223); assay: Off-target binding screen; conditions: 1000 nM, read-out: % Inhibition of Control Specific Binding
T9 construct: Eurofins Pharma Discovery Services (contract screen)
T9 sequence (P28223 whole entry): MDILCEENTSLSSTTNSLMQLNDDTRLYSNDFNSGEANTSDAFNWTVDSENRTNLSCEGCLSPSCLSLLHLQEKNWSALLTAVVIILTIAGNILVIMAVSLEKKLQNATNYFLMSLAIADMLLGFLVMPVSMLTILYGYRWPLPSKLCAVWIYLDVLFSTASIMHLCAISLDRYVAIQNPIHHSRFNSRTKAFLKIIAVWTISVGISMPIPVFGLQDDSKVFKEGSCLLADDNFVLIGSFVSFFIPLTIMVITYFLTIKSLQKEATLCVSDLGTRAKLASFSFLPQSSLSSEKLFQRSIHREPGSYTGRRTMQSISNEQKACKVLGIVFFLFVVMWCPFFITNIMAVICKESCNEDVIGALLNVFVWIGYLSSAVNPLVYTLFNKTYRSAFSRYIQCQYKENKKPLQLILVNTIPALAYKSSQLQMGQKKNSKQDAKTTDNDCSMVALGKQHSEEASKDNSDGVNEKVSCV

NET = target: T10, NET (Homo sapiens, UniProt P23975); assay: Off-target binding screen; conditions: 1000 nM, read-out: % Inhibition of Control Specific Binding
T10 construct: Eurofins Pharma Discovery Services
T10 sequence (P23975 whole entry): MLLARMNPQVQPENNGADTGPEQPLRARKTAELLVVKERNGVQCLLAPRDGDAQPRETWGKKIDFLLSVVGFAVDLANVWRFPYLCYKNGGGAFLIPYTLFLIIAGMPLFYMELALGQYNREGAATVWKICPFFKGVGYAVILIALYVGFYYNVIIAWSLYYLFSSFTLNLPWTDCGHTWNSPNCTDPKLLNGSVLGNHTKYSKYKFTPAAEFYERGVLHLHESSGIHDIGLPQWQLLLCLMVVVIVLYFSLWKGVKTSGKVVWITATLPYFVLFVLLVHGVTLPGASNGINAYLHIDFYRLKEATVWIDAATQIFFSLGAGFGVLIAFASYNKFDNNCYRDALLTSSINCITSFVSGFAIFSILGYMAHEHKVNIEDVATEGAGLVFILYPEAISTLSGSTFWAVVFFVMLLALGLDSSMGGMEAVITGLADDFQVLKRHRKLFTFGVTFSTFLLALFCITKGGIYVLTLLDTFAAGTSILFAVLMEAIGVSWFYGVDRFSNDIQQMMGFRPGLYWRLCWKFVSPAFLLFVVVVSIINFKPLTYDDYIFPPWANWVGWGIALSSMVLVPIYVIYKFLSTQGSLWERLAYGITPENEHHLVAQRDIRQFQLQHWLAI

α2B = target: T11, α2B (Homo sapiens, UniProt P18089); assay: Off-target binding screen; conditions: read-out: % Inhibition of Control Specific Binding; for inhibition at 0.01 µM: 10 nM; for inhibition at 0.1 µM: 100 nM; for inhibition at 1 µM: 1000 nM
T11 construct: Eurofins Pharma Discovery Services (contract screen)
T11 sequence (P18089 1-450): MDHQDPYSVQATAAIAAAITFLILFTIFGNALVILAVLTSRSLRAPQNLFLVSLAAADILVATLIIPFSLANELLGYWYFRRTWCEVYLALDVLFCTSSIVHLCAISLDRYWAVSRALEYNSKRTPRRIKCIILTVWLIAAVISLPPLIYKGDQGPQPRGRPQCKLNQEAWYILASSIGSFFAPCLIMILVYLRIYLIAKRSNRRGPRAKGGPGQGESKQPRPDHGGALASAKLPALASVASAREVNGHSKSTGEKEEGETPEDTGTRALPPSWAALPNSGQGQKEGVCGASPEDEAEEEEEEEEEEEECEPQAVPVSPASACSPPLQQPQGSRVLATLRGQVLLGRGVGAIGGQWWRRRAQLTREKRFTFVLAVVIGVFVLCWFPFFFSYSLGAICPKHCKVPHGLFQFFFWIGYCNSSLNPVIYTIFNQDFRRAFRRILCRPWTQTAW

D5 = target: T12, D5 (Homo sapiens, UniProt P21918); assay: Off-target binding screen; conditions: read-out: % Inhibition of Control Specific Binding; for inhibition at 1 µM: 1000 nM
T12 construct: Eurofins Pharma Discovery Services (contract assay)
T12 sequence (P21918 whole entry): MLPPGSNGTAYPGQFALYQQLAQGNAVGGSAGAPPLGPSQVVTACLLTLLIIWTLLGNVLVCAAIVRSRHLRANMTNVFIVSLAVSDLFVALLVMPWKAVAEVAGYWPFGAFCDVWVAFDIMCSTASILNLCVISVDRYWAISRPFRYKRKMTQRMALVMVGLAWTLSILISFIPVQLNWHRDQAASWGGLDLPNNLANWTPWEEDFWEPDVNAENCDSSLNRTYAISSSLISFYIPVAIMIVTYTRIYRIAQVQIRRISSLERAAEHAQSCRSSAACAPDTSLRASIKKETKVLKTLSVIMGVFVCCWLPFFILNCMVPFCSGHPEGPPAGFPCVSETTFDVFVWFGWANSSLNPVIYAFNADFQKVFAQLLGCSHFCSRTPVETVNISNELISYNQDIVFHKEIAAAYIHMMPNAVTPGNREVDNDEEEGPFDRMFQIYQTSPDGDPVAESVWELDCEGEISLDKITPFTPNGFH

D3 = target: T13, D3 (Homo sapiens, UniProt P35462); assay: Off-target binding screen; conditions: read-out: % Inhibition of Control Specific Binding; for inhibition at 0.01 µM: 10 nM; for inhibition at 0.1 µM: 100 nM; for inhibition at 1 µM: 1000 nM
T13 construct: Eurofins Pharma Discovery Services (contract assay)
T13 sequence (P35462 whole entry): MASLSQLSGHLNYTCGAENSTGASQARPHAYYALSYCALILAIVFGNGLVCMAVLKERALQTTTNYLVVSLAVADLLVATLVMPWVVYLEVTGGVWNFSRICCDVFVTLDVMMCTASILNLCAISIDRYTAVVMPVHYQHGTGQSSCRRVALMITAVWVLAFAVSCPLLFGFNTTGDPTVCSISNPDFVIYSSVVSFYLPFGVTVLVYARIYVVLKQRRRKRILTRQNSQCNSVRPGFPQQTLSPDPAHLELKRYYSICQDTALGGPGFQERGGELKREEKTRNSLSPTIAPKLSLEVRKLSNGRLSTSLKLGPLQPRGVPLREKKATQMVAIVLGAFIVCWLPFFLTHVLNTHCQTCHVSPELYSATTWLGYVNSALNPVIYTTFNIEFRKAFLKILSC

β3 = target: T14, β3 (Homo sapiens, UniProt P13945); assay: Off-target binding screen; conditions: 1000 nM, read-out: % Inhibition of Control Specific Binding
T14 construct: Eurofins Pharma Discovery Services (contract assay)
T14 sequence (P13945 whole entry): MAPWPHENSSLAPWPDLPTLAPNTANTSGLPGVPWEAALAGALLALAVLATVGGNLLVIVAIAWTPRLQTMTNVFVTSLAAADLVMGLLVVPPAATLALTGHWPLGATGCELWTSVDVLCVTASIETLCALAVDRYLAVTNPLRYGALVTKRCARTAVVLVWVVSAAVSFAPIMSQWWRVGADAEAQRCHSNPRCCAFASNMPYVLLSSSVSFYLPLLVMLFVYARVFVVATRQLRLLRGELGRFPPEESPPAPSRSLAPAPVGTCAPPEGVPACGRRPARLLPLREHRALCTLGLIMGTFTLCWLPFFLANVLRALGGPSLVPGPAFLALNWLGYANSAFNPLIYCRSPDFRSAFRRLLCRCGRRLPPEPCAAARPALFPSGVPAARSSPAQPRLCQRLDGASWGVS

Row | Compound | inhibition at 1 µM (M4) | inhibition at 0.01 µM (σ1) | inhibition at 0.1 µM (σ1) | inhibition at 1 µM (σ1) | CLint scaled at […], 50 µM (Intrinsic clearance) | inhibition at 1 µM (δ (DOR)) | inhibition at 1 µM (5-HT6) | inhibition at 1 µM (DAT) | inhibition at 1 µM (5-HT2B) | inhibition at 0.01 µM (α2A) | inhibition at 0.1 µM (α2A) | inhibition at 1 µM (α2A) | inhibition at 0.01 µM (α1B) | inhibition at 0.1 µM (α1B) | inhibition at 1 µM (5-HT2A) | inhibition at 1 µM (NET) | inhibition at 1 µM (α2B) | inhibition at 1 µM (D5) | inhibition at 1 µM (D3) | inhibition at 1 µM (β3) | further results
1 | O=C(c1ccc(F)c(Cl)c1)N1CCC(F)(CNCCOc2cccc3[nH]ccc23)CC1 [Compound 56, (4-(((2-((1H-Indol-4-yl)oxy)ethyl)amino)methyl)-4-fluoropiperidin-1-yl)(3-chloro-4-fluorophenyl)methanone] | -10% | 1% | 22% | 86% | 9.6 mL/min/kg | 0% | 1% | 37% | 48% | -7% | 33% | 81% | -6% | 11% | 10% | 5% | 75% | 91% | 99% | 1% | inhibition at 1 µM (α1B): 69%; inhibition at 0.01 µM (α2B): -8%; inhibition at 0.1 µM (α2B): 29%; inhibition at 0.001 µM (D5; 1 nM): -10%; inhibition at 0.01 µM (D5; 10 nM): -3%; inhibition at 0.1 µM (D5; 100 nM): 53%; inhibition at 0.001 µM (D3; 1 nM): 41%; inhibition at 0.01 µM (D3): 36%; inhibition at 0.1 µM (D3): 85%
2 | O=C(c1ccc(F)c(Cl)c1)N1CCC(F)(CNCCOc2ccccc2)CC1 [Compound 3] | -9% | 1% | 15% | 88% | 41.7 mL/min/kg | 3% | -9% | -2% | 11% | -5% | 21% | 66% |  |  | 3% | -7% | 85% | 40% | 69% | -2% | inhibition at 1 µM (α1B): 32%; inhibition at 0.01 µM (α2B): -2%; inhibition at 0.1 µM (α2B): 45%; inhibition at 0.01 µM (D3): 12%; inhibition at 0.1 µM (D3): 26%
3 | CNc1ccccc1OCCNCC1(F)CCN(C(=O)c2ccc(F)c(Cl)c2)CC1 [Compound 44, (3-Chloro-4-fluorophenyl)(4-fluoro-4-(((2-(2-(methylamino)phenoxy)ethyl)amino)methyl)piperidin-1-yl)methanone] | -11% | 11% | 31% | 84% | 48.8 mL/min/kg | -5% | 3% | 0% | 23% |  |  | 10% | -3% | -6% | -2% | 0% | -2% | 29% | 42% | -7% | 
